Measurements reported in patent US6191138A, “Phenanthridines” (Byk Gulden Lomberg Chemische Fabrik GmbH, priority 1996, dated 2001).

Tested on: PDE IV
Assay: Inhibition of PDE IV Activity (method of Bauer and Schwabe, adapted to microtiter plates)
Type: biochemical

Compound	-log IC50 (Inhibition of PDE IV Activity)
COC(=O)c1ccc(C2=N[C@H]3CCCC[C@H]3c3cc(OC)c(OC)cc32)cc1 (racemic) [Compound 1, (+/ -)-cis-8,9-dimethoxy-6-[4-(methoxycarbonyl)phenyl]-1,2,3,4,4a,10b-hexahydrophenanthridine]	7.39
CCOc1cc2c(cc1OCC)[C@@H]1CCCC[C@@H]1N=C2c1ccc(C(=O)OC)cc1 (racemic) [Compound 2, (+/ -)-cis-8,9-diethoxy-6-[4-(methoxycarbonyl)phenyl]-1,2,3,4,4a,10b-hexahydrophenanthridine]	8.84
COC(=O)c1ccc(C2=N[C@H]3CCCC[C@H]3c3cc(OC(F)F)c(OC)cc32)cc1 (racemic) [Compound 3, (+/ -)-cis-9-difluoromethoxy-8-methoxy-6-[4-(methoxycarbonyl)phenyl]-1,2,3,4,4a ,10b-hexahydrophenanthridine]	7.73
CCOc1cc2c(cc1OC)C(c1ccc(C(=O)OC)cc1)=N[C@H]1CCCC[C@@H]21 (racemic) [Compound 4, (+/ -)-cis-9-ethoxy-8-methoxy-6-[4-(methoxycarbonyl)phenyl]-1,2,3,4,4a,10b-hexahydrophenanthridine]	8.73
CCOc1cc2c(cc1OC)[C@@H]1CCCC[C@@H]1N=C2c1ccc(C(=O)OC)cc1 (racemic) [Compound 5, (+/ -)-cis-8-ethoxy-9-methoxy-6-[4-(methoxycarbonyl)phenyl]-1,2,3,4,4a,10b-hexahydrophenanthridine]	7.02
CCOc1cc2c(cc1OCC)[C@@H]1CCCC[C@@H]1N=C2c1cccc(C(=O)OC)c1 (racemic) [Compound 6, (+/-)-cis-8,9-diethoxy-6-[3-(methoxycarbonyl)phenyl]-1,2,3,4,4a ,10b-hexahydrophenanthridine]	8.14
CCOc1cc2c(cc1OCC)[C@@H]1CCCC[C@@H]1N=C2c1ccccc1C(=O)OC (racemic) [Compound 7, (+/ -)-cis-8,9-diethoxy-6-[2-(methoxycarbonyl)phenyl]-1,2,3,4,4a,10b-hexahydrophenanthridine]	6.34
COC(=O)c1ccc(C2=N[C@H]3CCCC[C@@H]3c3cc(OC)c(OC)cc32)cc1 (racemic) [Compound 8, (+/ -)-trans-8,9-dimethoxy-6-[4-(methoxycarbonyl)phenyl]-1,2,3,4,4a,10b-hexahydrophenanthridine]	5.92
COc1cc2c(cc1OC)[C@@H]1CCCC[C@@H]1N=C2c1ccc(C(=O)OCC2CC2)cc1 (racemic) [Compound 13, (+/ -)-cis-8,9-dimethoxy-6-[4-(cyclopropylmethoxycarbonyl)phenyl]-1,2,3,4,4a ,10b-hexahydrophenanthridine]	7.39
CCOc1cc2c(cc1OCC)[C@@H]1CCCC[C@@H]1N=C2c1ccc(C(=O)O)cc1.Cl (racemic) [Compound 14, (+/ -)-cis-6-(4-carboxyphenyl)-8,9-diethoxy-1,2,3,4,4a,10b-hexahydrophenanthridine hydrochloride]	8.27
COc1cc2c(cc1OC)[C@@H]1CCCC[C@@H]1N=C2c1ccc(C(=O)O)cc1.Cl (racemic) [Compound 15, (+/ -)-cis-6-(4-carboxyphenyl)-8,9-dimethoxy-1,2,3,4,4a,10b-hexahydrophenanthridine hydrochloride]	6.81
CCOc1cc2c(cc1OC)C(c1ccc(C(=O)O)cc1)=N[C@H]1CCCC[C@@H]21.Cl (racemic) [Compound 16, (+/ -)-cis-6-(4-carboxyphenyl)-9-ethoxy-8-methoxy-1,2,3,4,4a,10b-hexahydrophenanthridine hydrochloride]	8.66
CCOc1cc2c(cc1OC)[C@@H]1CCCC[C@@H]1N=C2c1ccc(C(=O)O)cc1.Cl (racemic) [Compound 17, (+/ -)-cis-6-(4-carboxyphenyl)-8-ethoxy-9-methoxy-1,2,3,4,4a,10b-hexahydrophenanthridine hydrochloride]	6.79
CCOc1cc2c(cc1OCC)[C@@H]1CCCC[C@@H]1N=C2c1cccc(C(=O)O)c1.Cl (racemic) [Compound 18, (+/ -)-cis-6-(3-carboxyphenyl)-8,9-diethoxy-1,2,3,4,4a,10b-hexahydrophenanthridine hydrochloride]	7.69
COc1cc2c(cc1OC(F)F)[C@@H]1CCCC[C@@H]1N=C2c1ccc(C(=O)O)cc1.Cl (racemic) [Compound 19, (+/ -)-cis-6-(4-carboxyphenyl)-9-difluoromethoxy-8-methoxy-1,2,3,4,4a,10b-hexahydrophenanthridine hydrochloride]	7.55
CNC(=O)c1ccc(C2=N[C@H]3CCCC[C@H]3c3cc(OC)c(OC)cc32)cc1 (racemic) [Compound 20, (+/-)-cis-6-[4-(N-methylaminocarbonyl)phenyl]-8,9-dimethoxy-1,2,3,4,4a ,10b-hexahydrophenanthridine]	5.18
CCOc1cc2c(cc1OCC)[C@@H]1CCCC[C@@H]1N=C2c1ccc(C(=O)OC)cc1 (single isomer, unassigned) [Compound 9, (-)-cis-8,9-diethoxy-6-[4-(methoxycarbonyl)phenyl]-1,2,3,4,4a,10b-hexahydrophenanthridine]	8.52
CCOc1cc2c(cc1OCC)[C@@H]1CCCC[C@@H]1N=C2c1ccc(C(=O)OC)cc1 (single isomer, unassigned) [Compound 10, (+)-cis-8,9-diethoxy-6-[4-(methoxycarbonyl)phenyl]-1,2,3,4,4a,10b-hexahydrophenanthridine]	7.48
COC(=O)c1ccc(C2=N[C@H]3CCCC[C@H]3c3cc(OC)c(OC)cc32)cc1 (single isomer, unassigned) [Compound 11, (-)-cis-8,9-dimethoxy-6-[4-(methoxycarbonyl)phenyl]-1,2,3,4,4a,10b-hexahydrophenanthridine]	7.52
COC(=O)c1ccc(C2=N[C@H]3CCCC[C@H]3c3cc(OC)c(OC)cc32)cc1 (single isomer, unassigned) [Compound 12, (+)-cis-8,9-dimethoxy-6-[4-(methoxycarbonyl)phenyl]-1,2,3,4,4a,10b-hexahydrophenanthridine]	4.95
